In US9428492B2, “Secondary alcohol substituted triazoles as PDE10 inhibitors” (Merck Sharp & Dohme Corp., priority 2012, dated 2016):
Read-outs that look alike come from different tables or passages of the source.

How the values were obtained:
CYP2C9 = CYP2C9 (Homo sapiens (Human), UniProt P11712); assay: reversible inhibition of CYP2C9; type: in vitro ADME
human PDE10A2 = human PDE10A2 (Homo sapiens (Human), UniProt Q9Y233); assay: PDE10 fluorescence polarization (IMAP FP) inhibition assay; type: biochemical
Chain of human PDE10A2 (Q9Y233 267-1055): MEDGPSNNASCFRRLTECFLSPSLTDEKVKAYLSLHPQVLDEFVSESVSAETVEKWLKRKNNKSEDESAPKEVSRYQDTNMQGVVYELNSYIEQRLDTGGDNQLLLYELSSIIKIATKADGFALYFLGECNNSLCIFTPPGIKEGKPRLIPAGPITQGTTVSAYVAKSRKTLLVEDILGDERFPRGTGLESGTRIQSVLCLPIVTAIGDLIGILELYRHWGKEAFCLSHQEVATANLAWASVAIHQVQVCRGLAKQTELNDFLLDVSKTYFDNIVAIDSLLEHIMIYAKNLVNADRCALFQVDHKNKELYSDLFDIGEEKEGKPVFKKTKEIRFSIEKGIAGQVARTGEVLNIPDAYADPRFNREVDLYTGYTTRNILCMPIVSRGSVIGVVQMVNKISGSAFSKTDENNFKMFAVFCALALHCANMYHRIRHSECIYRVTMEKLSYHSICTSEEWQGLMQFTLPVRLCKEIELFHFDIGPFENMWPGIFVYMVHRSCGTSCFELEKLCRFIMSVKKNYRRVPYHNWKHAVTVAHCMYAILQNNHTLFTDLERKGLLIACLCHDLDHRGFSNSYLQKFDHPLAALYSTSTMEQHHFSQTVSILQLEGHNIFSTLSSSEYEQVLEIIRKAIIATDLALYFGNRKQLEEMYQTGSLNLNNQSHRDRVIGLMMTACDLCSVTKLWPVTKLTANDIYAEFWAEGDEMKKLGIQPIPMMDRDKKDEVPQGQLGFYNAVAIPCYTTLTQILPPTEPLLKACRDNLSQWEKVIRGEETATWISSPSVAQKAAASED
Experimental: The activity of the compounds in accordance with the present invention as PDE10 inhibitors may be readily determined without undue experimentation using a fluorescence polarization (FP) methodology that is well known in the art (Huang, W., et al., J. Biomol Screen, 2002, 7: 215).
In a typical experiment the PDE10 inhibitory activity of the compounds of the present invention was determined in accordance with the following experimental method. PDE10A2 was amplified from human fetal brain cDNA (Clontech, Mountain View, Calif.) using a forward primer corresponding to nucleotides 56-77 of human PDE10A2 (Accession No. AF127480, Genbank Identifier 4894716), containing a Kozak consensus sequence, and a reverse primer corresponding to nucleotides 2406-2413 of human PDE10A2 (Accession No. AF127480, Genbank Identifier 4894716). Amplification with Easy-A polymerase (Stratagene, La Jolla, Calif.) was 95° C. for 2 minutes followed by thirty three cycles of 95° C. for 40 seconds, 55° C. for 30 seconds, and 72° C. for 2 minutes 48 seconds. Final extension was 72° C. for 7 minutes. The PCR product was TA cloned into pcDNA3.2-TOPO (Invitrogen, Carlsbad, Calif.) according to standard protocol. AD293 cells with 70-80% confluency were transiently transfected with human PDE10A2/pcDNA3.2-TOPO using Lipofectamine 2000 according to manufacturer specifications (Invitrogen, Carlsbad, Calif.). Cells were harvested 48 hours post-transfection and lysed by sonication (setting 3, 10×5 sec pulses) in a buffer containing 20 mM HEPES, 1 mM EDTA and protease inhibitor cocktail (Roche). Lysate was collected by centrifugation at 75,000×g for 20 minutes. Supernatant containing the cytoplasmic fraction was used for evaluation of PDE10A2 activity. The fluorescence polarization assay for cyclic nucleotide phosphodiesterases was performed using an IMAP® FP kit supplied by Molecular Devices, Sunnyvale, Calif. (product # R8139). IMAP® technology has been applied previously to phosphodiesterase assays (Huang, W., et al., J. Biomol Screen, 2002, 7: 215). Assays were performed at room temperature in 384-well microtiter plates with an incubation volume of 20.2 μL. Solutions of test compounds were prepared in DMSO and serially diluted with DMSO to yield 8 μL of each of 10 solutions differing by 3-fold in concentration, at 32 serial dilutions per plate. […] 0% of inhibition is determined by using DMSO (1% final concentrations).
A Labcyte Echo 555 (Labcyte, Sunnyvale, Calif.) is used to dispense 200 nL from each well of the titration plate to the 384 well assay plate. A solution of enzyme (1/1600 dilution from aliquots; sufficient to produce 20% substrate conversion) and a separate solution of FAM-labeled cAMP PDE from Molecular Devices (product # R7506), at a final concentration of 50 nM are made in the assay buffer (10 mM Tris HCl, pH 7.2, 10 mM MgCl2, 0.05% NaN3 0.01% Tween-20, and 1 mM DTT). The enzyme and the substrate are then added to the assay plates in two consecutive additions of 10 μL, and then shaken to mix. The reaction is allowed to proceed at room temperature for 30 minutes. […] The enzymatic reaction is stopped by addition of 60 μL of the binding solution to each well of the assay plates and the plates are sealed and shaken for 10 seconds. The plate was incubated at room temperature for at least one hour prior to determining the fluorescence polarization (FP). The parallel and perpendicular fluorescence of each well of the plate was measured using a Perkin Elmer EnVision™ plate reader (Waltham, Mass.).
Fluorescence polarization (mP) was calculated from the parallel (S) and perpendicular (P) fluorescence of each sample well and the analogous values for the median control well, containing only substrate (So and Po), using the following equation: Polarization (mP)=1000*(S/So−P/Po)/(S/So+P/Po).
Dose-inhibition profiles for each compound were characterized by fitting the mP data to a four-parameter equation given below.

CYP3A4 = CYP3A4 (Homo sapiens (Human), UniProt P08684); assay: time-dependent inhibition (TDI) of CYP3A4; type: in vitro ADME; details: for time-dependent inhibition (TDI) of the CYP3A4 enzyme: result in words
Chain of CYP3A4 (P08684 whole entry): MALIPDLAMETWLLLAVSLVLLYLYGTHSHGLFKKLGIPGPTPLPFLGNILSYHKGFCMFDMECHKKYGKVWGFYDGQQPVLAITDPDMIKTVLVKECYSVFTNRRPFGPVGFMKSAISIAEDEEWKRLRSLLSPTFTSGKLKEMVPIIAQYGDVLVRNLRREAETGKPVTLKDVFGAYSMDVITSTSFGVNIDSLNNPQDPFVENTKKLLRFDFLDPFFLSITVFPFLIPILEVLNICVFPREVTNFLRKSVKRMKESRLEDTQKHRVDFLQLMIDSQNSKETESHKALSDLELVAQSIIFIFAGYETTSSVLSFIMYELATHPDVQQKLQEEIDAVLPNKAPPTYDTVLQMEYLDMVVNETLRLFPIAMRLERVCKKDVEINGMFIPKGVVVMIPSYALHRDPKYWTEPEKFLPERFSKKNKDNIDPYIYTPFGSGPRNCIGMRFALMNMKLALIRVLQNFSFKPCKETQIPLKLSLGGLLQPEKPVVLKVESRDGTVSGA

Chain of CYP2C9 (P11712 whole entry): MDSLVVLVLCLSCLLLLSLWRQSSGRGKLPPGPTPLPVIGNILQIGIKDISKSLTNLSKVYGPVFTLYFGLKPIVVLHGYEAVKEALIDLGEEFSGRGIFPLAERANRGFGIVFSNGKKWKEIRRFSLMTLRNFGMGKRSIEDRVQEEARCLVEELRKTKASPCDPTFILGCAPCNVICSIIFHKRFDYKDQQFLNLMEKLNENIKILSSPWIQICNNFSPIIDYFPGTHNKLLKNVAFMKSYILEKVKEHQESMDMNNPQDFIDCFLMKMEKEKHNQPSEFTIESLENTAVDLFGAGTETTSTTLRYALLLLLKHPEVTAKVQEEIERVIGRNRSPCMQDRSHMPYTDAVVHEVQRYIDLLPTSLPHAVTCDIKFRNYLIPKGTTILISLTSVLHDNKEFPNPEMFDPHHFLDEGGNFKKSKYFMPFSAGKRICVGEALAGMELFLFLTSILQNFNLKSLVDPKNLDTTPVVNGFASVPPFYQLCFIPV

IC50 (CYP2C9) [nM] | Ki (human PDE10A2; comparison table with Compounds A, B, C, read-out: PDE10 Ki) [nM] | Ki (human PDE10A2; read-out: PDE10a Ki) [nM] | TDI CYP3A4 shift ratio (CYP3A4) | time-dependent inhibition (TDI) of the CYP3A4 enzyme (CYP3A4) | Compound
> 50000 | 0.74 | 0.74 | 1 | do not exhibit TDI of CYP3A4 | Cc1nc([C@@H]2C[C@H]2c2nc3ccccc3n2C)cc(-n2nc(C)nc2[C@H](C)O)n1 [Example 13, (S)-1-(3-methyl-1-(2-methyl-6-((1R,2R)-2-(1-methyl-1H-benzo[d]imidazol-2-yl)cyclopropyl)pyrimidin-4-yl)-1H-1,2,4-triazol-5-yl)ethanol]
> 50000 |  | 0.23 | 1 | do not exhibit TDI of CYP3A4 | Cc1nc(N2CC(c3nc4ccccc4n3C)C2)cc(-n2nc(C)nc2[C@H](C)O)n1 [Example 1, (S)-1-(3-methyl-1-(2-methyl-6-(3-(1-methyl-1H-benzo[d]imidazol-2-yl)azetidin-1-yl)pyrimidin-4-yl)-1H-1,2,4-triazol-5-yl)ethanol]
